Converted amounts (≈) assume the structure as drawn. Read-outs that look alike come from different tables or passages of the source.
Assays:
[1] = SAD/MAD oral administration in healthy adult male subjects; format: in vivo, human; conditions: 1.25 to 20 mg (SAD) and 5 to 30 mg (MAD)
Method: A dose of 20 mg paltusotine was chosen for the oral dose in the ADME study as a possible therapeutic dose estimated by PD activities of suppression of growth hormone releasing hormone (GHRH) stimulated GH secretion.

[2] = Phase 1 hepatic impairment study, plasma PK after single oral 20 mg tablet; format: in vivo, human; conditions: for AUC(0-t) / AUC(0-inf) / Cmax / MRT inf / Vd/F / half-life / Tmax: both sexes, human, plasma, oral, 20 mg; for AUC(0-inf): read-out: AUC(0-inf), Mean ± SD; for Cmax: read-out: Cmax, Mean ± SD; for MRT inf: read-out: MRT(0-inf), Median (min, max); for Vd/F: read-out: VZ/F, Mean ± SD; for half-life: read-out: t1/2, Mean ± SD (converted); for Tmax: read-out: tmax, Median (min, max); for AUC(0-inf) Geometric Mean Ratio (90% CI), sensitivity analysis / AUC(0-t) Geometric Mean Ratio (90% CI), sensitivity analysis / Cmax Geometric Mean Ratio (90% CI), sensitivity analysis: matched pairs MMRM with age and BMI
Description: Overall, 36 male and female subjects were enrolled, including 14 subjects with normal hepatic function, 8 subjects with mild stable hepatic impairment (Group 1), 8 subjects with moderate stable hepatic impairment (Group 2), and 6 subjects with severe stable hepatic impairment (Group 3). Healthy subjects with normal hepatic function (Group 4) were matched with hepatically impaired subjects according to sex, age (±10 years), and BMI (±20%). A reasonable attempt was made to match healthy subjects with hepatically impaired subjects in terms of race. Healthy subjects may have matched to more than 1 subject in different hepatic impairment groups but not more than 1 subject within each hepatic impairment group. Healthy subjects were recruited into the study after a sufficient number of hepatically impaired subjects were enrolled in Groups 1, 2, and 3.
The Child-Pugh scale was used to categorize the degree of hepatic impairment for assignment into the mild (score of 5-6), moderate (score of 7-9), and severe hepatic impairment (score of 10-15) groups.
The study included a screening period (Days −28 to −2), check-in (Day −1), and a treatment period (Days 1 to 7). On Day 1, all subjects received a single oral dose of 20 mg of paltusotine (1×20 mg tablet) administered with 240 mL of room temperature water following an overnight fast (nothing to eat or drink except water) of at least 10 hours. Subjects remained fasted and upright (seated or standing) for 4 hours after dosing. Water was permitted as desired except for the period 1 hour before and 1 hour after administration of study drug. Subjects received standardized meals that were scheduled at the same time daily during the study.
Serial blood samples for PK analysis of paltusotine were collected before dosing (0 hour) and up to 144 hours after administration of paltusotine.
Blood samples for analysis of paltusotine concentrations in plasma were collected at the following time points: before dosing (0 hour) and at 0.25, 0.5, 0.75, 1, 1.25, 1.5, 2, 3, 4, 6, 8, 10, 12, 24, 48, 72, 96, 120, and 144 hours after administration of paltusotine.
Pharmacokinetic samples were analyzed using a validated liquid chromatography coupled with tandem mass spectrometry assay for paltusotine in human plasma.
Plasma concentration-time data was analyzed by non-compartmental analysis using Phoenix® WinNonlin® Version 8.3 (Certara USA, Inc., Princeton, NJ).

SST2 = SST2 (Homo sapiens, UniProt P30874); experiment: bias of G-protein activation versus β-arrestin activation; format: cell-based
[3] = test system: other human somatostatin receptors
IGF-1 = experiment: suppression of IGF-1 in Beagle dogs, 7 days oral; format: in vivo
[4] = test system: human liver microsomes and recombinant CYP450s; experiment: CYP phenotyping, in vitro metabolism; format: in vitro ADME
plasma GH = experiment: suppression of plasma GH after rGHRH challenge in rat; format: in vivo
Method: The in vivo pharmacological efficacy of paltusotine has been examined in rat and dog. In the rat, acute efficacy was evaluated by examining the suppression of plasma GH in response to a challenge with rat growth hormone releasing hormone (rGHRH). […] The effects of chronic, oral, 14-day administration of paltusotine were evaluated by measuring the sustained suppression of IGF-1 in the rat.

[5] = plasma exposure in 14-day rat study; format: in vivo; conditions: 10 mg/kg/day oral
[6] = molecular target: human somatostatin receptor 2 (SST2) (Homo sapiens, UniProt P30874); conditions: read-out: EC50, inhibition of cAMP accumulation via SST2 activation; average, in vitro
Chain of human somatostatin receptor 2 (SST2) (P30874 whole entry): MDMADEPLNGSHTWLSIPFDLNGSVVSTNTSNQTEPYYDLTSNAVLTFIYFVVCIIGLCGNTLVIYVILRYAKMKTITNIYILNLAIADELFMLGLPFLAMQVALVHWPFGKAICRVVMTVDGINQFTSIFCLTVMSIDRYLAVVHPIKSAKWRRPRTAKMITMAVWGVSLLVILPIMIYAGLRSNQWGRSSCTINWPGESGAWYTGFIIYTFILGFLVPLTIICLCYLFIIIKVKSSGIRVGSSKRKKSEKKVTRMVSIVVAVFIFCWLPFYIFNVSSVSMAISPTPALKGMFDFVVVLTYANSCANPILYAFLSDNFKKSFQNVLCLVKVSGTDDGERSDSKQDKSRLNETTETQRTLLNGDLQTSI

Chain of SST2 (P30874 whole entry): as above

Which AUC dose dependence [1] does the source give for `N#Cc1cccc(-c2ccc3ncc(-c4cc(F)cc(F)c4)c(N4CCC(N)CC4)c3c2)c1O` [paltusotine, 3-[4-(4-amino-1-piperidyl)-3-(3,5-difluorophenyl)-6-quinolyl]-2-hydroxybenzonitrile] here?
Its AUC dose dependence is “increased dose-dependently”.

What about the AUC(0-t) ([2]; mild hepatic impairment, read-out: AUC(0-24), Mean ± SD) of the same molecule?
Its AUC(0-t) is 1150 ± 467 ng·h/mL.

And the AUC(0-inf) ([2]; mild hepatic impairment)?
The AUC(0-inf) was 1880 ± 926 ng·h/mL.

What about the AUC(0-t) ([2]; mild hepatic impairment, read-out: AUC(0-t), Mean ± SD) of the same molecule?
Its AUC(0-t) is 1820 ± 888 ng·h/mL.

What about the Cmax ([2]; mild hepatic impairment) of the same molecule?
The Cmax was 133 ± 56.6 ng/mL.

What about the MRT inf ([2]; mild hepatic impairment) of the same molecule?
The MRT inf was 28.3 h.

And the Vd/F ([2]; mild hepatic impairment)?
Its Vd/F is 565 ± 348 L.

And the half-life ([2]; mild hepatic impairment)?
The half-life was 29.5 ± 9.4 h.

And the Tmax ([2]; mild hepatic impairment)?
The Tmax was 1.63 h.

What about the AUC(0-t) ([2]; moderate hepatic impairment, read-out: AUC(0-24), Mean ± SD) of the same molecule?
The AUC(0-t) was 1050 ± 729 ng·h/mL.

And the AUC(0-inf) ([2]; moderate hepatic impairment)?
Its AUC(0-inf) is 1620 ± 1050 ng·h/mL.

And the AUC(0-t) ([2]; moderate hepatic impairment, read-out: AUC(0-t), Mean ± SD)?
Its AUC(0-t) is 1580 ± 1040 ng·h/mL.

What about the Cmax ([2]; moderate hepatic impairment) of the same molecule?
The Cmax was 100 ± 74.6 ng/mL.

And the MRT inf ([2]; moderate hepatic impairment)?
The MRT inf was 25.2 h.

And the Vd/F ([2]; moderate hepatic impairment)?
The Vd/F was 1050 ± 1110 L.

And the half-life ([2]; moderate hepatic impairment)?
The half-life was 31.2 ± 7.93 h.

And the Tmax ([2]; moderate hepatic impairment)?
The Tmax was 2 h.

And the AUC(0-t) ([2]; normal hepatic function, read-out: AUC(0-24), Mean ± SD)?
The AUC(0-t) was 1070 ± 545 ng·h/mL.

What about the AUC(0-inf) ([2]; normal hepatic function) of the same molecule?
Its AUC(0-inf) is 1840 ± 947 ng·h/mL.

And the AUC(0-t) ([2]; normal hepatic function, read-out: AUC(0-t), Mean ± SD)?
Its AUC(0-t) is 1780 ± 914 ng·h/mL.

And the Cmax ([2]; normal hepatic function)?
Its Cmax is 101 ± 53.7 ng/mL.

And the MRT inf ([2]; normal hepatic function)?
The MRT inf was 34.6 h.

And the Vd/F ([2]; normal hepatic function)?
The Vd/F was 660 ± 407 L.

What about the half-life ([2]; normal hepatic function) of the same molecule?
Its half-life is 32.8 ± 6.92 h.

What about the Tmax ([2]; normal hepatic function) of the same molecule?
The Tmax was 2 h.

And the AUC(0-t) ([2]; severe hepatic impairment, read-out: AUC(0-24), Mean ± SD)?
The AUC(0-t) was 1100 ± 704 ng·h/mL.

And the AUC(0-inf) ([2]; severe hepatic impairment)?
The AUC(0-inf) was 1740 ± 1230 ng·h/mL.

And the AUC(0-t) ([2]; severe hepatic impairment, read-out: AUC(0-t), Mean ± SD)?
The AUC(0-t) was 1680 ± 1190 ng·h/mL.

And the Cmax ([2]; severe hepatic impairment)?
Its Cmax is 110 ± 72.7 ng/mL.

What about the MRT inf ([2]; severe hepatic impairment) of the same molecule?
The MRT inf was 29.2 h.

What about the Vd/F ([2]; severe hepatic impairment) of the same molecule?
Its Vd/F is 666 ± 479 L.

And the half-life ([2]; severe hepatic impairment)?
The half-life was 29.4 ± 8.38 h.

And the Tmax ([2]; severe hepatic impairment)?
The Tmax was 3 h.

What about the “CL/F, Mean ± SD” value ([2]; mild hepatic impairment) of the same molecule?
Its value is 15.50 ± 13.496 L/h.

And the “Cmax higher relative to normal group” value ([2]; mild hepatic impairment)?
Its value is 35%.

And the “tlag, Median (min, max)” value ([2]; mild hepatic impairment)?
The value was 0.00 (0.0, 0.3) h.

And the “AUC(0-inf) Geometric Mean Ratio (90% CI), sensitivity analysis” value (“AUC(0-inf) Geometric Mean Ratio (90% CI)” below) ([2]; mild vs normal)?
Its value is 0.94 (0.591, 1.504).

And the “AUC(0-t) Geometric Mean Ratio (90% CI), sensitivity analysis” value (“AUC(0-t) Geometric Mean Ratio (90% CI)” below) ([2]; mild vs normal)?
Its value is 0.95 (0.591, 1.515).

What about the “Cmax Geometric Mean Ratio (90% CI), sensitivity analysis” value (from here on “Cmax Geometric Mean Ratio (90% CI)”) ([2]; mild vs normal) of the same molecule?
Its value is 1.38 (0.871, 2.200).

And the “AUC0-t and AUC0-inf lower relative to normal group” value ([2]; moderate hepatic impairment)?
Its value is “approximately 25%”.

What about the “CL/F, Mean ± SD” value ([2]; moderate hepatic impairment) of the same molecule?
Its value is 24.89 ± 25.914 L/h.

And the “Cmax lower relative to normal group” value ([2]; moderate hepatic impairment)?
Its value is 24%.

And the “mean CL/F higher compared to normal group” value ([2]; moderate hepatic impairment)?
Its value is 1.8 fold.

And the “mean Vz/F higher compared to normal group” value ([2]; moderate hepatic impairment)?
The value was 1.6 fold.

And the “tlag, Median (min, max)” value ([2]; moderate hepatic impairment)?
The value was 0.13 (0.0, 0.5) h.

And the “AUC(0-inf) Geometric Mean Ratio (90% CI)” value ([2]; moderate vs normal)?
The value was 0.72 (0.414, 1.251).

And the “AUC(0-t) Geometric Mean Ratio (90% CI)” value ([2]; moderate vs normal)?
Its value is 0.71 (0.403, 1.254).

And the “Cmax Geometric Mean Ratio (90% CI)” value ([2]; moderate vs normal)?
The value was 0.74 (0.389, 1.412).

What about the “CL/F, Mean ± SD” value ([2]; normal hepatic function) of the same molecule?
Its value is 14.05 ± 7.521 L/h.

And the “tlag, Median (min, max)” value ([2]; normal hepatic function)?
Its value is 0.00 (0.0, 0.3) h.

What about the “time through which concentration was measurable in systemic circulation” value ([2]; postdose, all groups) of the same molecule?
The value was 144 h.

And the “CL/F, Mean ± SD” value ([2]; severe hepatic impairment)?
The value was 15.92 ± 8.507 L/h.

And the “tlag, Median (min, max)” value ([2]; severe hepatic impairment)?
The value was 0.00 (0.0, 0.3) h.

And the “AUC(0-inf) Geometric Mean Ratio (90% CI)” value ([2]; severe vs normal)?
Its value is 0.94 (0.516, 1.702).

And the “AUC(0-t) Geometric Mean Ratio (90% CI)” value ([2]; severe vs normal)?
The value was 0.93 (0.512, 1.702).

And the “Cmax Geometric Mean Ratio (90% CI)” value ([2]; severe vs normal)?
Its value is 1.04 (0.586, 1.854).

And the “bias for G-protein activation (lowering cAMP) compared to β-arrestin activation” value (SST2)?
The value was 75 fold.

What about the “selectivity over other human somatostatin receptors” value [3] of the same molecule?
Its value is > 4000 fold.

What about the “oral doses with sustained suppression of IGF-1” value (IGF-1) of the same molecule?
Its value is ≥ 6 mg/kg/day.

And the “CYP enzymes catalyzing oxidative metabolism” value [4]?
The value was “CYP3A4/5 catalyzes the oxidative metabolism of paltusotine with minor contribution of CYP2D6”.

What about the “contribution of CYP-mediated metabolism” value ([4]; in vitro studies) of the same molecule?
The value was ~16.8%.

And the EC50 (plasma GH; Rattus norvegicus, po, read-out: plasma EC50 for GH suppression)?
The EC50 was 0.011 µg/mL (≈ 0.0241 µM).

What about the “doses that significantly and dose dependently suppressed GH relative to vehicle” value (plasma GH; oral, acute, rGHRH challenge) of the same molecule?
The value was ≥ 3 mg/kg.

And the AUC(0-t) ([5]; read-out: day-last mean plasma AUC0-24)?
The AUC(0-t) was 975 ng·h/mL.

And the Cmax ([5]; read-out: day-last mean plasma Cmax)?
Its Cmax is 127 ng/mL.

What about the EC50 [6] of the same molecule?
The EC50 was 250 pM.

— patent publication US12208092B2, “Compositions and methods for administering paltusotine to patients with hepatic impairment” (CRINETICS PHARMACEUTICALS, INC., priority 2023, dated 2025)
